Each structure is given as a SMILES string.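 Grown in 96-well plates, cells were treated for 48 hours with each compound at five concentrations. Insufficient inhibition: endpoint recorded as highest concentration tested. GI50 = concentration required for 50% inhibition of growth.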 The source made the active and inactive calls. No stated cut-off is given here; in the data, active = GI50 up to about 1.1 µM and inactive = higher. A value given as a limit tells only on which side of the number the result lay.

Among the test systems are IGROV-1; OVCAR-3; HCT-116; UO-31; RXF 393; MDA-MB-231; OVCAR-4; ACHN; Malme-3M; CAKI-1; CCRF-CEM; UACC-62; PC-3; OVCAR-8; KM12; SK-MEL-28; HOP-62; HCC 2998; MCF7; U-251.
Holding throughout (test): growth of human tumour cells (NCI), 48 h

In the case of `Clc1c2ncccc2cc2nn[nH]c12`, the GI50 is 33 µM (inactive) with IGROV-1; > 100 µM (inactive) with OVCAR-3; > 100 µM (inactive) with HCT-116; 82.6 µM (inactive) with UO-31; > 100 µM (inactive) in the test with RXF 393; > 100 µM (inactive) in the test on MDA-MB-231. Further, the GI50 in the test with OVCAR-4 was > 100 µM (inactive); in the test on ACHN, > 100 µM (inactive); in the test with Malme-3M, 79.3 µM (inactive); with CAKI-1 it was > 100 µM (inactive); in the test on CCRF-CEM, 17.3 µM (inactive); with UACC-62, > 100 µM (inactive). The GI50 with PC-3, in the test with OVCAR-8, in the test with KM12, in the test on SK-MEL-28, with HOP-62 and with HCC 2998 was > 100 µM (inactive) throughout. For the same compound, the GI50 with MCF7 and with U-251 was > 100 µM (inactive) in each case.

With `CCCCCCCCCCCCC/C=C/[C@@H](O)[C@H](COC1OC(CO)C(OC2OC(CO)C(O)C(OC3(C(=O)O)CC(O)C(NC(C)=O)C(C(O)C(O)CO)O3)C2O)C(O)C1O)N=[N+]=[N-]` (stereo not given in full), the GI50 was 32.9 µM (inactive) in the test with IGROV-1; > 100 µM (inactive) with OVCAR-3; 70.1 µM (inactive) with HCT-116; 23 µM (inactive) in the test with UO-31; 20.7 µM (inactive) in the test on RXF 393; > 100 µM (inactive) in the test with MDA-MB-231. Further, the GI50 was > 100 µM (inactive) in the test on OVCAR-4; > 100 µM (inactive) in the test with ACHN; 21.8 µM (inactive) in the test on Malme-3M; > 100 µM (inactive) in the test on CAKI-1; 22.5 µM (inactive) in the test on CCRF-CEM; 15.8 µM (inactive) in the test with UACC-62. The GI50 in the test with PC-3 is 24.2 µM (inactive); in the test on OVCAR-8, 21.8 µM (inactive); with KM12, 18.5 µM (inactive); in the test on SK-MEL-28, 30.3 µM (inactive); in the test on HOP-62, 20.5 µM (inactive); in the test on HCC 2998, > 100 µM (inactive). The GI50 in the test with MCF7 is > 100 µM (inactive); with U-251 it was 19.9 µM (inactive).

Take `COc1ccc2c(c1)/C(=C\c1c(Cl)nc3n1CCS3)C(=O)N2`: the GI50 is 7.28 µM (inactive) in the test with IGROV-1; 2.77 µM (inactive) in the test with OVCAR-3; 3.73 µM (inactive) in the test with HCT-116; 5.86 µM (inactive) in the test with UO-31; 2.13 µM (inactive) in the test on RXF 393; 5.14 µM (inactive) with MDA-MB-231. For the same compound, the GI50 was 11.9 µM (inactive) in the test on OVCAR-4; 11 µM (inactive) in the test with ACHN; 11.2 µM (inactive) in the test on Malme-3M; 7.48 µM (inactive) with CAKI-1; 6.31 µM (inactive) with CCRF-CEM; 4 µM (inactive) in the test on UACC-62. The GI50 in the test with PC-3 is 3.36 µM (inactive); in the test on OVCAR-8 it was 19.7 µM (inactive); in the test with KM12, 2.62 µM (inactive); in the test with SK-MEL-28, 18.7 µM (inactive); in the test with HOP-62 it was 6.35 µM (inactive); in the test with HCC 2998 it was 2.74 µM (inactive). The GI50 with MCF7 is 4.42 µM (inactive); in the test on U-251 it was 5.37 µM (inactive).

`CC1(C)Cc2nc3c(cc2C(=O)C1/C=N/C(C#N)=C(\N)C#N)C(=O)C(/C=N/C(C#N)=C(\N)C#N)C(C)(C)C3` (stereo not given): the GI50 was 1.52 µM (inactive) in the test with IGROV-1; 2.77 µM (inactive) with OVCAR-3; 1.54 µM (inactive) in the test with HCT-116; 1.84 µM (inactive) in the test with UO-31; 1.68 µM (inactive) in the test on RXF 393; 2.82 µM (inactive) in the test on MDA-MB-231. Further, the GI50 in the test with OVCAR-4 was 4.04 µM (inactive); in the test with ACHN it was 2.28 µM (inactive); in the test on Malme-3M, 1.52 µM (inactive); in the test on CAKI-1, 1.65 µM (inactive); in the test on CCRF-CEM, 2.39 µM (inactive); in the test with UACC-62 it was 1.83 µM (inactive). The GI50 in the test on PC-3 was 1.99 µM (inactive); with OVCAR-8, 2.36 µM (inactive); with KM12 it was 1.77 µM (inactive); in the test with SK-MEL-28, 1.98 µM (inactive); in the test on HOP-62, 2.33 µM (inactive); in the test on HCC 2998 it was 4.52 µM (inactive). The results for the GI50 in the test on MCF7 and in the test with U-251 were 2.15 µM (inactive) and 2.04 µM (inactive), respectively.

Regarding `Cc1cccc(C)c1NC(=O)/C(Cl)=C(/Cl)C(=O)O`, the GI50 in the test with IGROV-1 was 20.8 µM (inactive); in the test on OVCAR-3, 20.9 µM (inactive); with HCT-116, 21.1 µM (inactive); in the test with UO-31, 14.8 µM (inactive); in the test on RXF 393, 18.8 µM (inactive); in the test with MDA-MB-231, 21.3 µM (inactive). The GI50 with OVCAR-4 is 18.5 µM (inactive); in the test with ACHN, 15.4 µM (inactive); with Malme-3M it was 14.7 µM (inactive); with CAKI-1, 7.66 µM (inactive); with CCRF-CEM, 2.95 µM (inactive); in the test on UACC-62, 13.7 µM (inactive). The GI50 in the test with PC-3 is 19.8 µM (inactive); in the test on OVCAR-8, 20.2 µM (inactive); in the test on KM12, 15.3 µM (inactive); with SK-MEL-28, 18.3 µM (inactive); in the test on HOP-62, > 62.2 µM (inactive); in the test with HCC 2998, 18 µM (inactive). Moreover, the GI50 in the test with MCF7 is 20.8 µM (inactive); with U-251, 21.1 µM (inactive).

Take `Cc1cc(C)c2c(=O)n(CC(O)CN3CCN(c4ncccn4)CC3)sc2n1` (stereo not given): the GI50 was 29.4 µM (inactive) with IGROV-1; 19.4 µM (inactive) in the test with OVCAR-3; 15.6 µM (inactive) with HCT-116; 16.4 µM (inactive) in the test on UO-31; 17.5 µM (inactive) with RXF 393; 17.5 µM (inactive) in the test on MDA-MB-231. The GI50 in the test on OVCAR-4 is 18.6 µM (inactive); with ACHN, 18.4 µM (inactive); in the test with Malme-3M, 20.1 µM (inactive); in the test on CAKI-1, 20 µM (inactive); in the test on CCRF-CEM, 5.79 µM (inactive); with UACC-62, 17.8 µM (inactive). The GI50 with PC-3 was 18.7 µM (inactive); with OVCAR-8 it was 19.2 µM (inactive); in the test on KM12, 20.8 µM (inactive); with SK-MEL-28 it was 17 µM (inactive); in the test on HOP-62, 20.3 µM (inactive); in the test on HCC 2998 it was 18.9 µM (inactive). For the same compound, the GI50 in the test with MCF7 was 17.9 µM (inactive); in the test on U-251 it was 17.8 µM (inactive).

Regarding `O=C(O)C1CSC2(CCCN(Cc3ccccc3)C2)N1` (stereo not given), the GI50 in the test with IGROV-1, in the test with OVCAR-3, in the test on HCT-116, with UO-31, in the test on RXF 393 and in the test on MDA-MB-231 was > 100 µM (inactive) in each case. Besides, the GI50 was > 100 µM (inactive) with OVCAR-4; > 100 µM (inactive) with ACHN; > 100 µM (inactive) in the test on Malme-3M; > 100 µM (inactive) with CAKI-1; 23.4 µM (inactive) with CCRF-CEM; > 100 µM (inactive) in the test on UACC-62. For the same compound, the GI50 in the test with PC-3, with OVCAR-8, with KM12, in the test with SK-MEL-28, with HOP-62 and with HCC 2998 was > 100 µM (inactive) throughout. Moreover, the GI50 in the test on MCF7 and in the test on U-251 was > 100 µM (inactive) in each case.

For `CCOC(=O)CO/N=C1/C(=C2/C(=O)Nc3ccccc32)Nc2ccccc21`, the GI50 is 2.58 µM (inactive) in the test on IGROV-1; 12.4 µM (inactive) with OVCAR-3; 5.12 µM (inactive) in the test with HCT-116; 86.7 µM (inactive) in the test with UO-31; 7.82 µM (inactive) in the test with RXF 393; 7.4 µM (inactive) in the test on MDA-MB-231. Moreover, the GI50 in the test on OVCAR-4 was 3.24 µM (inactive); in the test on ACHN, 67 µM (inactive); in the test with Malme-3M, > 100 µM (inactive); with CAKI-1, 20.1 µM (inactive); with CCRF-CEM, > 100 µM (inactive); in the test with UACC-62 it was 48.6 µM (inactive). For the same compound, the GI50 was 78.7 µM (inactive) in the test on PC-3; 6.21 µM (inactive) in the test on OVCAR-8; 0.0955 µM (active) in the test with KM12; > 100 µM (inactive) in the test with SK-MEL-28; 8.3 µM (inactive) in the test with HOP-62; > 100 µM (inactive) in the test with HCC 2998. The GI50 with MCF7 was 50.1 µM (inactive); with U-251 it was 6.78 µM (inactive).

As for `COC(=O)c1ccc(/C=C/c2cc(O)ccc2O)cc1`, the GI50 in the test on IGROV-1 is 2.62 µM (inactive); in the test on OVCAR-3 it was 1.18 µM (inactive); in the test with HCT-116, 5.75 µM (inactive); in the test on UO-31, 1.47 µM (inactive); in the test on RXF 393 it was 2.25 µM (inactive); with MDA-MB-231 it was 2.74 µM (inactive). Also, the GI50 in the test with OVCAR-4 was 4.5 µM (inactive); in the test with ACHN it was 3.19 µM (inactive); in the test with Malme-3M, 0.923 µM (active); with CAKI-1, 2.43 µM (inactive); with CCRF-CEM, 0.242 µM (active); in the test on UACC-62, 2.87 µM (inactive). For the same compound, the GI50 in the test with PC-3 is 1.48 µM (inactive); in the test on OVCAR-8, 2.67 µM (inactive); in the test with KM12, 3.81 µM (inactive); with SK-MEL-28 it was 13.9 µM (inactive); in the test on HOP-62, 27.2 µM (inactive); with HCC 2998 it was 20 µM (inactive). Also, the GI50 was 5.14 µM (inactive) in the test on MCF7 and 2.51 µM (inactive) in the test on U-251.

Consider `COc1cccc(-c2cc(O)c3cc(Cl)cnc3n2)c1`, for which the GI50 in the test with IGROV-1 is 0.228 µM (active); in the test with OVCAR-3, 0.0369 µM (active); with HCT-116 it was 0.0469 µM (active); in the test with UO-31, 0.313 µM (active); in the test on RXF 393, 0.0698 µM (active); in the test with MDA-MB-231, 0.338 µM (active). Moreover, the GI50 is 6.17 µM (inactive) in the test with OVCAR-4; 0.127 µM (active) in the test with ACHN; 2.25 µM (inactive) with Malme-3M; 0.0546 µM (active) in the test on CAKI-1; 0.0484 µM (active) in the test on CCRF-CEM; 0.0589 µM (active) in the test with UACC-62. Also, the GI50 was 0.065 µM (active) with PC-3; 0.158 µM (active) in the test on OVCAR-8; 0.0887 µM (active) in the test on KM12; 0.0918 µM (active) in the test on SK-MEL-28; 0.0809 µM (active) in the test with HOP-62; 0.164 µM (active) in the test with HCC 2998. Further, the values for the GI50 in the test with MCF7 and in the test with U-251 were 0.484 µM (active) and 0.0693 µM (active), respectively.
